Where “and” joins values, the source holds several entries; their conditions need not be identical. Equal values may be shown once. Ends that are not written are not given here.
Tests used:
[1] = system: human umbilical vein endothelial cells (HUVEC)
[2] = system: human bronchial epithelial cells (BEAS-2B)
[3] = system: human embryonic kidney cells (HEK293T)
[4] = Electronic tongue analysis (Taste-Sensing System SA 402B); design: unit not given here; conditions: reference solution 30 mM KCl + 0.3 mM tartaric acid as baseline, first measurement excluded; for Umami: sensor AAE; for Umami / Bitter / Sweet: detection threshold 0, room temperature; for Umami / Bitter / Sour / Salty: four replicates; for Sour: detection threshold -13, room temperature; for Salty: detection threshold -6, room temperature; for Sweet: measured five times
How it was run: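 Room-temperature electronic-tongue readings with five taste probes, calibrated against a reference of 30 mM KCl and 0.3 mM tartaric acid. Samples at 0.1 mg/mL and 1.0 mg/mL were measured four times, sweetness five times, and the first run was dropped. Detection cut-offs were sour −13, salty −6, others 0.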

[5] = system: human pancreatic ductal epithelial cells (HPNE)

Substance	Average cell viability, HUVEC [1]	Cell viability, HUVEC, Data1 [1]	Cell viability, HUVEC, Data2 [1]	Cell viability, HUVEC, Data3 [1]	Average cell viability, BEAS-2B [2]	Cell viability, BEAS-2B, Data1 [2]	Cell viability, BEAS-2B, Data2 [2]	Cell viability, BEAS-2B, Data3 [2]	Average cell viability, HEK293T [3]	Cell viability, HEK293T, Data1 [3]	Cell viability, HEK293T, Data2 [3]	Cell viability, HEK293T, Data3 [3]	Umami ([4]; peptide 0.1 mg/mL)	Umami ([4]; peptide 1 mg/mL)	Bitter ([4]; sensor C00, peptide 0.1 mg/mL)	Bitter ([4]; sensor C00, peptide 1 mg/mL)	Sour ([4]; sensor CA0, peptide 0.1 mg/mL)	Sour ([4]; sensor CA0, peptide 1 mg/mL)	Salty ([4]; sensor CT0, peptide 0.1 mg/mL)	Salty ([4]; sensor CT0, peptide 1 mg/mL)	other results
YAGNAP [TaPep10]	102.47	99.31	104.50	103.62	98.84	101.69	95.01	99.80	99.40	94.83	102.87	100.50	3.61	-3.37	6.97	bitterness suppression and -0.80	-8.60	8.97	-20.44	14.02	Sweet ([4]; sensor GL1, peptide 0.1 mg/mL): 11.07; Sweet ([4]; sensor GL1, peptide 1 mg/mL): -4.53; Average cell viability, HPNE [5]: 95.54; Cell viability, HPNE, Data1 [5]: 97.18; Cell viability, HPNE, Data2 [5]: 94.47; Cell viability, HPNE, Data3 [5]: 94.97
VARLEA [TaPep9]	96.43	97.15	102.50	89.65	112.30	110.77	115.45	110.67	105.62	103.06	112.15	101.64	2.67	-2.73	7.95	2.75	-6.31	8.17	-18.92	12.49	Sweet ([4]; sensor GL1, peptide 0.1 mg/mL): 8.92; Sweet ([4]; sensor GL1, peptide 1 mg/mL): -4.48; Average cell viability, HPNE [5]: 104.39; Cell viability, HPNE, Data1 [5]: 117.30; Cell viability, HPNE, Data2 [5]: 93.74; Cell viability, HPNE, Data3 [5]: 102.13
AGDAW [TaPep30]	102.13	114.08	97.39	94.92	116.78	115.45	115.55	119.34	110.47	112.62	114.23	104.57	1.69	-4.59	7.53	3.18	-3.43	12.02	-20.28	11.18	Sweet ([4]; sensor GL1, peptide 0.1 mg/mL): 5.66; Sweet ([4]; sensor GL1, peptide 1 mg/mL): -6.46; Average cell viability, HPNE [5]: 103.96; Cell viability, HPNE, Data1 [5]: 100.43; Cell viability, HPNE, Data2 [5]: 106.72; Cell viability, HPNE, Data3 [5]: 104.73
ANGPE [TaPep69]	102.58	91.72	108.65	107.37	106.78	116.65	94.82	108.87	99.97	100.13	102.30	97.48	1.23	-4.62	7.32	3.75	-2.38	11.54	-19.29	9.06	Sweet ([4]; sensor GL1, peptide 0.1 mg/mL): 5.65; Sweet ([4]; sensor GL1, peptide 1 mg/mL): -4.24; Average cell viability, HPNE [5]: 101.93; Cell viability, HPNE, Data1 [5]: 107.52; Cell viability, HPNE, Data2 [5]: 97.94; Cell viability, HPNE, Data3 [5]: 100.33
TPRKQ [TaPep37]	107.80	111.04	111.52	100.82	100.23	95.41	110.47	94.82	100.47	100.50	96.44	104.48	1.93	-5.88	7.34	3.28	-4.03	12.49	-13.82	15.18	Sweet ([4]; sensor GL1, peptide 0.1 mg/mL): 4.01; Sweet ([4]; sensor GL1, peptide 1 mg/mL): -5.26; Average cell viability, HPNE [5]: 94.98; Cell viability, HPNE, Data1 [5]: 108.02; Cell viability, HPNE, Data2 [5]: 84.26; Cell viability, HPNE, Data3 [5]: 92.65
TAEQVA [TaPep33]	104.47	106.25	114.32	92.84	98.57	90.33	99.90	105.48	102.24	97.67	105.05	104.01	1.93	-0.93	7.77	3.28	-4.09	10.86	-19.69	10.92	Sweet ([4]; sensor GL1, peptide 0.1 mg/mL): 8.49; Sweet ([4]; sensor GL1, peptide 1 mg/mL): -5.32; Average cell viability, HPNE [5]: 106.02; Cell viability, HPNE, Data1 [5]: 118.30; Cell viability, HPNE, Data2 [5]: 86.46; Cell viability, HPNE, Data3 [5]: 113.31
